Here are results for nine compounds from US8506927B2, “Pegylated fluorobenzamide analogues, their synthesis and use in diagnostic imaging” (Washington University, priority 2011, dated 2013).

For data set [1], the target named is T1, σ2 receptor (Rattus norvegicus, UniProt Q5U3Y7).
T1 construct: using rat liver membrane homogenates (˜300 μg protein); from tissue; host or cells: rat liver membrane homogenate
T1 sequence (Q5U3Y7 1-176): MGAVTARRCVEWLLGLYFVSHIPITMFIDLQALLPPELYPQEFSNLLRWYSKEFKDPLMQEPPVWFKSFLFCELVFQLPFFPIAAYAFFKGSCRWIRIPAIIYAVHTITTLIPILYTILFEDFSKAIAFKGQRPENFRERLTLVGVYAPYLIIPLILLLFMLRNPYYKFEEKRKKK
As to the kind of experiment: σ2 receptor binding assay, [3H]DTG competition in the presence of (+)-pentazocine. To be noted: for Ki: rat liver membrane homogenates, ~5 nM [3H]DTG with 1 μM (+)-pentazocine, mean ± SEM, read-out: σ2 binding affinity (Ki); for Ratio (σ1/σ2): ratio of Ki σ1 to Ki σ2. On the procedure:
(§1) This example illustrates in vitro binding studies with the compounds of the present teachings. In this example, in vitro binding studies can be conducted in order to measure the affinity of the target compounds for σ1 and σ2 receptors.
(§2) In these assays, pegylated sigma ligands of the present teachings can be dissolved in N,N-dimethylformamide (DMF), DMSO or ethanol, and can then be diluted in 50 mM Tris-HCl buffer containing 150 mM NaCl and 100 mM EDTA at pH 7.4 prior to performing σ1 and σ2 receptor binding assays Procedures for isolating the membrane homogenates and performing the σ1 and σ2 receptor binding assays have been described in detail previously (Xu, J., et al., Eur. J. Pharmacol. […] (1-3): 8-17, 2005). Briefly, the σ1 receptor binding assays can be conducted in 96-well plates using guinea pig brain membrane homogenates (˜300 μg protein) and ˜5 nM [^3H](+)-pentazocine (34.9 Ci/mmol, Perkin Elmer, Boston, Mass.). The total incubation time can be 90 min at room temperature. Nonspecific binding can be determined from samples that contain 10 μM of cold haloperidol. After 90 min, the reaction can be terminated by the addition of 150 μL of ice-cold wash buffer (10 mM Tris-HCl, 150 mM NaCl, pH 7.4) using a 96 channel transfer pipette (Fisher Scientific, Pittsburgh, Pa.). The samples can be harvested and filtered rapidly through a 96-well fiber glass filter plate (Millipore, Billerica, Mass.) that has been presoaked with 100 μL of 50 mM Tris-HCl buffer at pH 8.0 for 1 h. Each filter can be washed 3 times with 200 μL of ice-cold wash buffer, and the filter can be counted in a Wallac 1450 MicroBeta liquid scintillation counter (Perkin Elmer, Boston, Mass.).
σ2 receptor binding assays can be conducted using rat liver membrane homogenates (˜300 μg protein) and ˜5 nM [^3H]DTG (58.1 Ci/mmol, Perkin Elmer, Boston, Mass.) in the presence of 1 μM (+)-pentazocine. The incubation time can be […] at room temperature. Nonspecific binding can be determined from samples that contain 10 μM of cold haloperidol. All other procedures can be identical to those described for the σ1 receptor binding assay above.
(§3) Data from the competitive inhibition experiments can be modeled using nonlinear regression analysis to determine the concentration that inhibits 50% of the specific binding of the radioligand (IC50 value). Competitive curves can be best fit to a one-site fit and give pseudo-Hill coefficients of 0.6-1.0. Ki values can be calculated using the method of Cheng and Prusoff (Biochem. Pharmacol. 22: 3099-3108, 1973) and can be presented as the mean±1 SEM. For these calculations, one can use a Kd value of 7.89 nM for [^3H](+)-pentazocine and guinea pig brain; for [^3H]DTG and rat liver, for example 30.73 nM.

Data set [2] concerns the target T2, σ1 receptor (Cavia porcellus, UniProt Q60492).
T2 construct: using guinea pig brain membrane homogenates (˜300 μg protein); from tissue; host or cells: guinea pig brain membrane homogenate
The data set can be described thus: σ1 receptor binding assay, [3H](+)-pentazocine competition. Particulars: guinea pig brain membrane homogenates, ~5 nM [3H](+)-pentazocine; mean ± SEM; read-out: σ1 binding affinity (Ki). On the procedure:
as §1, §2, §3

The subject of data set [3] is EMT-6 mouse mammary adenocarcinoma tumor. The data set can be described thus: Biodistribution / tumor uptake of 18F-labeled compounds in tumor-bearing mice. In kind it is in vivo. Particulars: EMT-6 tumor-bearing female Balb/c mice, versus non-pegylated analog (m=1; X1=H; X2=Br), FIG. 2. On the procedure: This example illustrates in vivo evaluation of compounds of the present teachings. All animal experiments can be conducted in compliance with the Guidelines for the Care and Use of Research Animals established by Washington University's Animal Studies Committee. EMT-6 mouse mammary adenocarcinoma cells (5×10^5 cells in 100 uL of phosphate-buffered saline) can be implanted subcutaneously in the scapular region of female Balb/c mice (˜2-month old and 17-22 g; Charles River Laboratories). The biodistribution studies can be initiated 7-10 days after implantation when the tumor size can be ˜0.2 cm^3 (˜200 mg).
For biodistribution studies, 10-120 μCi of an [^18F]-radiolabeled pegylated compound of the present teachings in 100-150 uL of saline can be injected via the tail vein into EMT-6 tumor-bearing female Balb/c mice. Groups of at least 4 mice can be used for each time point. At 5, 30, 60, and 120 min after injection, the mice can be euthanized, and samples of blood, lung, liver, kidney, muscle, fat, heart, brain, bone and tumor can be removed, weighed and counted in a Beckman Gamma 8000 well counter. After counting, the percentage of the injected dose per gram of tissue (% ID/g) can be calculated. The tumor/organ ratios can be calculated by dividing the % ID/g of the tumor by the % ID/g of each organ.
This example illustrates tumor uptake of ^18F-labeled pegylated compounds 6c, 6d and 6g versus a nonpegylated analog (m=1; X1=H; X2=Br).
In these experiments, various ^18F-labeled pegylated compounds of the present teachings as well as a non-pegylated analog were administered to tumor-bearing mice as described in Example 22. The pegylated compounds tested,
[drawing 27] were 6c (m=2; X1=H; X2=Br), 6d (m=3; X1=H; X2=Br) and 6g (m=2; X1=OCH3; X2=Br). A non-pegylated analog (m=1; X1=H; X2=Br) was also tested.

Data set [4] addresses σ2 receptors (Homo sapiens, UniProt Q5BJF2). To be noted: stated in words with literature references; cited from earlier work.
Data set [5] has as its target σ1 receptors (Homo sapiens, UniProt Q99720). To be noted: stated in words with literature references; cited from earlier work.

T2 sequence (Q60492 whole entry): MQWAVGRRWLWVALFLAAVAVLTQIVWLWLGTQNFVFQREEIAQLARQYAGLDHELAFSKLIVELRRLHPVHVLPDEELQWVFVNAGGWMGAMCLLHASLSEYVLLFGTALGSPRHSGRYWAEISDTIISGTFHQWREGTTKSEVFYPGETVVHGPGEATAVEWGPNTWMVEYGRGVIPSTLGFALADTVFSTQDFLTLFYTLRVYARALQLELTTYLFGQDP
Chain of σ2 receptors (Q5BJF2 whole entry): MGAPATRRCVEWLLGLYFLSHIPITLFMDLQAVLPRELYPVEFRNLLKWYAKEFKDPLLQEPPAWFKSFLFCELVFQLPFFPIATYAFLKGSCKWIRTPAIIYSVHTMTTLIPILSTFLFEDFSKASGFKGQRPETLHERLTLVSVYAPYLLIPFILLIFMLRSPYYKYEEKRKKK
Chain of σ1 receptors (Q99720 whole entry): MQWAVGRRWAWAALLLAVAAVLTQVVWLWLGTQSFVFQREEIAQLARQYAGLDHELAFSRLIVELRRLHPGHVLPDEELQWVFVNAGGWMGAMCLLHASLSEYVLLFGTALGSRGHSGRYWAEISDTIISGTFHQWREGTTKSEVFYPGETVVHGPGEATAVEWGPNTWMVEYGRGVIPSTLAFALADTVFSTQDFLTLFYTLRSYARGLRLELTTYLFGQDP

For the compound `COc1cc2c(cc1OC)CN(CCCCNC(=O)c1cc(I)ccc1OCCOCCOCCF)CC2` [6f, N-(4-(6,7-dimethoxy-3,4-dihydroisoquinolin-2(1H)-yl)butyl)-2-(2-(2-(2-fluoroethoxy)ethoxy)ethoxy)-5-iodobenzamide], the figures for the inhibitory constant (Ki) in data set [1] and in data set [2] were 7.47 ± 1.2 nM and 1280 nM, respectively. Also, the “Ratio (σ1/σ2)” value in data set [1] is given as 171.
As for `COc1cc2c(cc1OC)CN(CCCCNC(=O)c1cc(Br)cc(OC)c1OCCOCCOCCF)CC2` [6h], in data set [1], the Ki (commonly the equilibrium dissociation constant of an inhibitor or competing ligand from its target) stood at 33 nM and the “Ratio (σ1/σ2)” value was determined as 276. The inhibitory constant (Ki) in data set [2] turned out to be 9100 nM.
Consider `COc1cc2c(cc1OC)CN(CCCCNC(=O)c1cc(Br)cc(OC)c1OCCOCCF)CC2` [6g, 5-bromo-N-(4-(6,7-dimethoxy-3,4-dihydroisoquinolin-2(1H)-yl)butyl)-2-(2-(2-fluoroethoxy)ethoxy)-3-methoxybenzamide], for which, in data set [1], the Ki came to 4.67 ± 0.6 nM and the “Ratio (σ1/σ2)” value came to 143. Also, in data set [3], the rate of washout entry was “slower rate of washout” and the tumor uptake result was “higher tumor uptake compared to the non-pegylated analog”. Also, the inhibition constant Ki in data set [2] is 669 ± 101 nM.
As for `COc1cc2c(cc1OC)CN(CCCCNC(=O)c1cc(I)ccc1OCCOCCF)CC2` [6e], in data set [1], the inhibitory constant (Ki) stood at 6.29 ± 0.6 nM and the “Ratio (σ1/σ2)” value came to 72. For the same compound, the inhibition constant (Ki) in data set [2] turned out to be 451 ± 56 nM.
Take `COc1cc2c(cc1OC)CN(CCCCNC(=O)c1cc(Br)ccc1OCCOCCOCCF)CC2` [6d, 5-Bromo-N-(4-(6,7-dimethoxy-3,4-dihydroisoquinolin-2(1H)-yl)butyl)-2-(2-(2-(2-fluoroethoxy)ethoxy)ethoxy)benzamide]: in data set [1], the Ki worked out at 9.8 ± 0.4 nM and the “Ratio (σ1/σ2)” value is 103. In data set [3], the rate of washout entry was “slower rate of washout” and the tumor uptake entry was “higher tumor uptake compared to the non-pegylated analog”. The inhibition constant (Ki) in data set [2] stood at 1010 nM.
Turning to `COc1cc2c(cc1OC)CN(CCCCNC(=O)c1cc(C)ccc1OCCOCCOCCF)CC2` [6b, N-(4-(6,7-dimethoxy-3,4-dihydroisoquinolin-2(1H)-yl)butyl)-2-(2-(2-(2-fluoroethoxy)ethoxy)ethoxy)-5-methylbenzamide], in data set [1], the Ki was 10.1 ± 0.4 nM and the “Ratio (σ1/σ2)” value was determined as 190. In data set [2], the inhibition constant (Ki) amounted to 1920 nM.
For `COc1cc2c(cc1OC)CN(CCCCNC(=O)c1cc(Br)ccc1OCCOCCF)CC2` [6c, 5-Bromo-N-(4-(6,7-dimethoxy-3,4-dihydroisoquinolin-2(1H)-yl)butyl)-2-(2-(2-fluoroethoxy)ethoxy)benzamide], in data set [1], the inhibition constant Ki is 1.38 ± 0.2 nM and the “Ratio (σ1/σ2)” value was 755. Besides, in data set [3], the rate of washout entry is “slower rate of washout” and the tumor uptake result is “higher tumor uptake compared to the non-pegylated analog”. In data set [2], the inhibitory constant (Ki) was 1040 nM.
As to `O=C(Cc1cccc(Br)c1)NC1CCN(Cc2ccc(F)cc2)CC1` [Yun-143, N-(4-fluorobenzyl)piperidinyl-4-(3-bromophenyl)acetamide], the “affinity for σ2 receptors” value in data set [4] is “high affinity”. In data set [5], the “affinity for σ1 receptors” value is on record as “high affinity”.
Regarding `COc1cc2c(cc1OC)CN(CCCCNC(=O)c1cc(C)ccc1OCCOCCF)CC2` [6a, N-(4-(6,7-dimethoxy-3,4-dihydroisoquinolin-2(1H)-yl)butyl)-2-(2-(2-fluoroethoxy)ethoxy)-5-methylbenzamide], in data set [1], the Ki turned out to be 6.75 ± 0.9 nM and the “Ratio (σ1/σ2)” value worked out at 41. In data set [2], the Ki came to 277 ± 38 nM.
